The values that follow come from US20080089927A1, “Methods for Coacervation Induced Liposomal Encapsulation and Formulations Thereof” (priority 2006, published 2008).

Each structure is given as a SMILES string. Where two headings read alike, the source gives them in different places.

Data set [1] can be described thus: Miscibility of amikacin sulfate with ethanol/water. Particulars: ethanol/water mixture, aqueous with cosolvent or surfactant or cyclodextrin. Format: physicochemical.
Text: Right after the infusion step at flow rates 300/500, ethanol concentration in the mixture reaches 34%.
One possible solution to this problem is to add more water to the vessel with the lipid/amikacin mixture, thus reducing both ethanol and amikacin concentration.
The nature of data set [2]: Ternary phase diagram amikacin sulfate-water-ethanol. The data set is classed as physicochemical. Particulars: 3 parts amikacin sulfate 70 mg/mL in water mixed with 2 parts ethanol. The source says:
FIG. 3 depicts a ternary phase diagram of amikacin sulfate—water—ethanol system.
FIG. 3 depicts a ternary phase diagram for an amikacin sulfate—water—ethanol system. The two-phase area under the binodial curve is a zone where the system separates into two phases, a coacervate phase and an equilibrium phase. The area above the binodial curve is a zone where single liquid phase system of amikacin sulfate dissolved in water-ethanol mixture exists. When 3 parts of amikacin sulfate solution in water at 70 mg/mL (point 1) is mixed with 2 parts of ethanol, the resulting mixture has composition (point 2), which spontaneously separates into two phases: coacervate phase rich in amikacin (point C) and equilibrium phase pour in amikacin (point E). Coacervate phase comprises only about 4.5% of total volume and originally forms as small droplets suspended in equilibrium phase. If lipids are present in surrounding solution when coacervates are just formed, they can spontaneously form bilayers around those droplets. During manufacturing it is often desired to limit exposure of the product to high ethanol concentration. For examples, another 3 parts of saline or buffer can be added consequently to the mixture, which shifts composition to the single-phase zone (point 3). […]

Turning to `NCC[C@H](O)C(=O)N[C@@H]1C[C@H](N)[C@@H](O[C@H]2O[C@H](CN)[C@@H](O)[C@H](O)[C@H]2O)[C@H](O)[C@H]1O[C@H]1O[C@H](CO)[C@@H](O)[C@H](N)[C@H]1O` [amikacin], the solubility was at least 15 mg/mL in data set [1] (27% ethanol, depending on temperature, read-out: amikacin soluble concentration) and under 15 mg/mL in data set [1] (34% ethanol, read-out: solubility limit).
Take `NCC[C@H](O)C(=O)N[C@@H]1C[C@H](N)[C@@H](O[C@H]2O[C@H](CN)[C@@H](O)[C@H](O)[C@H]2O)[C@H](O)[C@H]1O[C@H]1O[C@H](CO)[C@@H](O)[C@H](N)[C@H]1O.O=S(=O)(O)O.O=S(=O)(O)O` [amikacin sulfate]: the “coacervate phase, share of total volume” value in data set [2] was “about 4.5%”.
